For data set [1] the following is noted: clinical trials, preliminary data, cited from earlier work.
The target of data set [2] is T1, human Adenosine A2a receptor (Homo sapiens, UniProt P29274).
T1 construct: expressed in transfected cells; host or cells: CHO cell membranes
Put plainly: Adenosine receptor TR-FRET binding assay (CA200645 displacement), A2a. Conditions: 100 nM CA200645, CHO cell membranes, 2 hours at room temperature.

Data set [3] concerns the target T2, human Adenosine A2b receptor (Homo sapiens, UniProt P29275).
T2 construct: expressed in transfected cells; host or cells: CHO cell membranes
T2 sequence (P29275 1-332): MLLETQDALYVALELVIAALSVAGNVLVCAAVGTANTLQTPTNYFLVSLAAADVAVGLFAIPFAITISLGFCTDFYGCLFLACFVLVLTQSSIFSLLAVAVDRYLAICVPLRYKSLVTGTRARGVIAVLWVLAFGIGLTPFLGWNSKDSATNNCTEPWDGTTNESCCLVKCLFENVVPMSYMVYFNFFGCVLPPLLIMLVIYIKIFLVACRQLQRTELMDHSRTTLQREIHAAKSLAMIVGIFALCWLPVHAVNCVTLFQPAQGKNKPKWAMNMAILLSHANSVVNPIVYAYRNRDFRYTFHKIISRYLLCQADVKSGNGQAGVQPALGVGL
The data set is described as follows: Adenosine receptor TR-FRET binding assay (CA200645 displacement), A2b. Conditions: 30 nM CA200645, CHO cell membranes, 2 hours at room temperature.
Method: (§1) All FRET binding experiments were conducted at room temperature in white 384-well plates, in assay binding buffer containing 1×LabMed (Cisbio, France), 100 μg/mL saponin, 1% DMSO and 0.02% pluronic acid. Binding of the fluorescently labelled Adenosine receptor antagonist XAC (CA200645, FRET acceptor) to terbium-labelled A1, A2a, A2b and A3 adenosine receptors (FRET donors) was detected by time-resolved FRET due to the close proximity of the donor and acceptor in a binding event. To investigate the ability of unlabelled test compounds to bind to Adenosine A1, A2a, A2b and A3 receptors, dose response curves were constructed that determined the ability of a range of concentrations to inhibit the binding of 30 nM CA200645 to the A2b receptor and 100 nM CA200645 to the A1, A2a, and A3 receptor.
(§2) Serial dilution (1:3 dilutions) of test compounds in neat DMSO and transfer of a 400 nL sample of test compound into the assay plate was carried out using the Mosquito (TTP Labtech, UK). The compound samples were incubated for 2 hours at room temperature with a fixed concentration of CA200645 defined for each receptor (see above) and CHO cell membranes containing the human Adenosine A1 (0.5 μg/well), A2a (0.3 μg/well), A2b (1 μg/well) or A3 (1 μg/well) receptor in 40 μL of assay buffer. Total and non-specific binding of CA200645 was determined in the absence and presence of 10 μM XAC, respectively. Following 2 hours incubation, the level of CA200645 binding was detected on a Pherastar FSX (BMG Labtech, Germany) using standard TR-FRET settings. The terbium donor was excited with three laser flashes at a wavelength of 337 nm, and donor and acceptor emission was detected at 620 nm and 665 nm wavelengths, respectively. FRET ratios were obtained by multiplying the acceptor/donor ratio value by 10,000. Specific binding was determined by subtracting the non-specific binding FRET ratio from the total binding FRET ratio. Compound IC50 curves were analysed using GraphPad Prism 7.0 (GraphPad, USA) and Ki affinity values were determined from the obtained IC50 values using the method of Cheng and Prusoff.

A further data set has as its system human PBMCs. Put plainly: CD3/CD28 stimulated IL-2 release NECA reversal assay in human PBMCs.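 Note: dose-response as % inhibition where 100% equals no-NECA control wells with CD3/CD28.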 It counts as cell-based. Conditions: PBMC, CD3/CD28 antibody stimulated, 1 uM NECA, 24 hours, IL-2 in culture supernatant. The method, boiled down: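 PBMCs from citrated donor blood, 50,000 cells/well on plate-bound CD3 antibody (1 ug/ml), with 1 ug/ml CD28 antibody, 1 uM NECA and antagonist at 0.003-10 μM final. After 24 h at 37° C, supernatant IL-2 was measured by MSD immunoassay.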

Data set [4] deals with CD8+ T cells in human whole blood. Put plainly: Measurement of pCREB in CD8+ T cells in human whole blood. It counts as cell-based. The conditions noted are these: T-cell, 1 h; heparinised human whole blood, rolipram, 3 μM NECA, 60 min, phospho-CREB in CD8+ T cells by FACS. A digest of the protocol:
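Heparinised human whole blood preincubated 20 min at 37 °C with serially diluted A2a antagonists plus rolipram, then stimulated 60 min with 3 μM NECA (final). After fixation and RBC lysis, permeabilized leukocytes stained for phospho-CREB and CD8; pCREB in CD8+ T cells read by flow cytometry.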

Data set [5] concerns the target T3, human Adenosine A1 receptor (Homo sapiens, UniProt P30542).
T3 sequence (P30542 1-326): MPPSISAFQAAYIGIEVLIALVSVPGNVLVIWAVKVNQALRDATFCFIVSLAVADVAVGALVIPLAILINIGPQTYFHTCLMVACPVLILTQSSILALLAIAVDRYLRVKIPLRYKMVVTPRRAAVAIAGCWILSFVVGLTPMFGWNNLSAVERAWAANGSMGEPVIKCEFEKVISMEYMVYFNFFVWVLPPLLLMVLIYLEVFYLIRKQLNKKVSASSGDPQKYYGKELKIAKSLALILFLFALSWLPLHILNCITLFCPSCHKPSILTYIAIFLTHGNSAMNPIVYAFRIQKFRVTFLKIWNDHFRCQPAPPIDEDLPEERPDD
Put plainly: Adenosine receptor TR-FRET binding assay (CA200645 displacement), A1.

For data set [6], the target named is T4, human Adenosine A3 receptor (Homo sapiens, UniProt P0DMS8).
T4 sequence (P0DMS8 1-318): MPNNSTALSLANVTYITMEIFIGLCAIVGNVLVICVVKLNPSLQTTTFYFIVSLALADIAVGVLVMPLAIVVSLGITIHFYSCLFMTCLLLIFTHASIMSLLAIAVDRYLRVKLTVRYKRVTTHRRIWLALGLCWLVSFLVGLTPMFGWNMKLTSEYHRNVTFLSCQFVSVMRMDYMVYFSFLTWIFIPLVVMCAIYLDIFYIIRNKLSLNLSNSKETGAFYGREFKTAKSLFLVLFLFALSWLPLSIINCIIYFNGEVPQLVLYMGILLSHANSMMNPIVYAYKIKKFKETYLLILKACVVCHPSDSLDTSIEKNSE
The data set is described as follows: Adenosine receptor TR-FRET binding assay (CA200645 displacement), A3.
Method: as §1, §2

For data set [7], the target named is programmed death receptor-1 (PD-1) (Homo sapiens, UniProt Q15116). Conditions: cited from earlier work.
Chain of programmed death receptor-1 (PD-1) (Q15116 25-288): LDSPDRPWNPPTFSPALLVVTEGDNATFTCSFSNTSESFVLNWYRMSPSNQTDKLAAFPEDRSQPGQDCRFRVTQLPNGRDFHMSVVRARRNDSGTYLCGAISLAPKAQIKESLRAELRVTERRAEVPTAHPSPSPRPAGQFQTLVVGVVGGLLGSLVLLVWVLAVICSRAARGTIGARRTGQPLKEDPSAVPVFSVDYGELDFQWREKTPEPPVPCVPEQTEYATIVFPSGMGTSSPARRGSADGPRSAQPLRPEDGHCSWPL
Another data set relates to solid tumors. The conditions noted are these: Rutkowski et al. 2019; cited from earlier work.

This is an account of results in US20230203041A1, “ANTAGONISTS OF THE ADENOSINE A2A RECEPTOR” (AdoRx Therapeutics Limited, priority 2020, published 2023).

T1 sequence (P29274 whole entry): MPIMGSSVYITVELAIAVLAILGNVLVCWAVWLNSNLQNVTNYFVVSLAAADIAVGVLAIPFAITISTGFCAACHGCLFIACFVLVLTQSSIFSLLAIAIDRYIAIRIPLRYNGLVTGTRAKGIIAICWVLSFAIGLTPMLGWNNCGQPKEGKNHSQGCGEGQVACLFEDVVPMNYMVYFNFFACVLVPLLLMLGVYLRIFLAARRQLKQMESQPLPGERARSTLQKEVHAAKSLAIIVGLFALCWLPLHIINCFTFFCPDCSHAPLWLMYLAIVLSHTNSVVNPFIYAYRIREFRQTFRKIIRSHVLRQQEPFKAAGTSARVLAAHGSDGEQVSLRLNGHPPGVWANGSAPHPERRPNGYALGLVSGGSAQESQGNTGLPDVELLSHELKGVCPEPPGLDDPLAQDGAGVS

For the compound `Cc1ccc(-c2nc(N)nc3c2nnn3Cc2cccc(CO[C@H]3CCOC3)n2)o1` [CPI-444], in data set [1] (monotherapy and combination with atezolizumab), the tolerability entry is “well tolerated”. Further, in [1] (early indications), the “CD8+ T infiltration into tumour tissue” value is on record as “enhancing CD8+ T infiltration into tumour tissue” and the tumour size result is “reducing tumour size”.

Take `Cc1cc(-c2c(-c3cccc(C#N)c3)nn3ccc(C(=N)N)nc23)cc(C)n1` [Example 97, 2-(3-Cyanophenyl)-3-(2,6-dimethyl-4-pyridyl)pyrazolo[1,5-a]pyrimidine-5-carboxamidine]: the inhibition constant (Ki) is 1.5 nM in data set [2], 21 nM in data set [3], 260 nM in data set [5] and > 1000 nM in data set [6]. The 50% inhibitory concentration (IC50) in the data set on human PBMCs amounted to 38 nM; in data set [4], 580 nM.

In the case of `CC(=O)NC(C)(C)CNC(=O)c1ccn2nc(-c3cccc(C#N)c3)c(-c3cc(C)nc(Cl)c3)c2n1` [Example 98, N-(2-Acetamido-2-methyl-propyl)-3-(2-chloro-6-methyl-4-pyridyl)-2-(3-cyanophenyl)pyrazolo[1,5-a]pyrimidine-5-carboxamide], the Ki amounted to 0.4 nM in [2], 9 nM in data set [3], 87 nM in data set [5] and 655 nM in data set [6]. For the same compound, the IC50 in the data set with human PBMCs worked out at 3 nM; in data set [4], 360 nM.

Turning to `Cc1cc(-c2c(-c3cccc(C#N)c3C)nn3ccc(C(=O)NCC(C)(C)O)nc23)cc(Cl)n1` [Example 102, 3-(2-Chloro-6-methyl-4-pyridyl)-2-(3-cyano-2-methyl-phenyl)-N-(2-hydroxy-2-methyl-propyl)pyrazolo[1,5-a]pyrimidine-5-carboxamide], the Ki in data set [2] is 0.5 nM; in data set [3] it was 32 nM; in data set [5], 233 nM; in data set [6], > 1000 nM. The half-maximal inhibitory concentration (IC50) is 16 nM in the data set on human PBMCs and 140 nM in data set [4].

For the compound `Cc1cc(-c2c(-c3cccc(C#N)c3C)nn3ccc(C(=O)NCC(C)(C)O)nc23)cc(C)n1` [Example 103, 2-(3-Cyano-2-methyl-phenyl)-3-(2,6-dimethyl-4-pyridyl)-N-(2-hydroxy-2-methyl-propyl)pyrazolo[1,5-a]pyrimidine-5-carboxamide], the Ki was 0.3 nM in data set [2], 22 nM in data set [3], 298 nM in data set [5] and > 1000 nM in [6]. Also, the results for the IC50 (in the data set on human PBMCs; in data set [4]) were 24 nM and 30 nM, respectively.

Consider `Cc1cc(-c2c(-c3cccc(C#N)c3C)nn3ccc(C(=O)N[C@H](C)C(C)(C)O)nc23)cc(C)n1` [Example 104, 2-(3-Cyano-2-methyl-phenyl)-3-(2,6-dimethyl-4-pyridyl)-N-[(1R)-2-hydroxy-1,2-dimethyl-propyl]pyrazolo[1,5-a]pyrimidine-5-carboxamide], for which the Ki in [2] was 0.9 nM; in data set [3] it was 330 nM; in data set [5] it was 735 nM; in data set [6], > 1000 nM. Also, the IC50 in the data set on human PBMCs stood at 10 nM; in [4] it was 190 nM.

`Cc1cc(-c2c(-c3cccc(C#N)c3C)nn3ccc(C(=O)N[C@@H](C)C(C)(C)O)nc23)cc(C)n1` [Example 104.1, 2-(3-Cyano-2-methyl-phenyl)-3-(2,6-dimethyl-4-pyridyl)-N-[(1S)-2-hydroxy-1,2-dimethyl-propyl]pyrazolo[1,5-a]pyrimidine-5-carboxamide]: the inhibitory constant (Ki) is 1.2 nM in data set [2], 111 nM in data set [3], 398 nM in data set [5] and > 1000 nM in data set [6]. Also, the IC50 came out at 4 nM in the data set with human PBMCs and 30 nM in data set [4].

Regarding `CC(=O)N1CCC(Nc2ccn3nc(-c4cccc(C#N)c4)c(-c4cc(C)nc(C)c4)c3n2)CC1` [Example 105.1, 3-[5-[(1-Acetyl-4-piperidyl)amino]-3-(2,6-dimethyl-4-pyridyl)pyrazolo[1,5-a]pyrimidin-2-yl]benzonitrile], the Ki in data set [2] was 8 nM; in [3], 50 nM; in data set [5], 692 nM; in data set [6] it was > 1000 nM. The half-maximal inhibitory concentration (IC50) turned out to be 33 nM in the data set on human PBMCs and 890 nM in data set [4].

“Cetrelimab: a fully human immunoglobulin (Ig) G4 kappa monoclonal antibody that binds to programmed death receptor-1 (PD-1) with high affinity and specificity”: in [7], the “binding to PD-1” value was “high affinity and specificity”. Further, the “activity in solid tumors” value with solid tumors is given as “activity in solid tumors”.
